Measurements: US9221807B2, “Substituted pyridones and pyrazinones and their use as inhibitors of neutrophil elastase activity” (Boehringer Ingelheim International GmbH, priority 2014, dated 2015)

Molecular target: T1, Human neutrophil elastase (Homo sapiens, UniProt P08246)
T1 construct: purchased Calbiochem 324681
T1 sequence (P08246 30-267): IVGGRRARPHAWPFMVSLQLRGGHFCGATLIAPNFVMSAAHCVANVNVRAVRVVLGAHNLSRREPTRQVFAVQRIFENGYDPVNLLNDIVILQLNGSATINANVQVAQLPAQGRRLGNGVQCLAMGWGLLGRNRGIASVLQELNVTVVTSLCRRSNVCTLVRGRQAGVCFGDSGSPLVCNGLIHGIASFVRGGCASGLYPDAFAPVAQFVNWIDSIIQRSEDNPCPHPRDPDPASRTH
Assay: Human Neutrophil Elastase Assay
Assay type: biochemical
Details: substrate MeOSuc-Ala-Ala-Pro-Val-AMC 250 μM, pH 7.5, fluorescence
Description: Human Neutrophil Elastase Assay
Materials: Human neutrophil elastase was purchased from Calbiochem (Cat. No.: 324681) and the elastase substrate MeOSuc-Ala-Ala-Pro-Val-AMC from Bachem (Cat. No.: 1-1270). All other materials were of the highest grade commercially available. The following buffers were used: Compound buffer: 100 mM Tris, 500 mM NaCl, adjusted to pH 7.5; Assay buffer: 100 mM Tris, 500 mM NaCl, adjusted to pH 7.5, containing 0.01% BSA. Assay conditions: Test compounds were prediluted in DMSO and subsequently in compound buffer (5% DMSO final). 5 μL of these compound dilutions were mixed with 10 μl Neutrophil elastase (9 ng/ml in assay buffer) in a black 384 well OptiPlate (Perkin Elmer, Cat No.: 6007270) and incubated for 15 min at room temperature. Subsequently 10 μL substrate solution in assay buffer were added (250 μM final concentration) and the plates were incubated for 60 min at room temperature. After inactivation of the enzyme, fluorescence intensities were measured at 380 nm excitation and 460 nm emission wavelengths. Each plate contains wells with a high value control (DMSO+enzyme+substrate) and wells with a low value control (DMSO+inactivated enzyme+substrate). IC50 values were estimated using a sigmoidal concentration response curve with variable slope. Means of low values were taken as 0%, means of high values as 100%.

IC50 [nM] | Compound
11.1 | Cc1c(-c2ccnn2C)nc(C(=O)NCc2ccc(S(C)(=O)=NC#N)cc2)c(=O)n1-c1cccc(C(F)(F)F)c1 (single isomer, unassigned) [Example 16, N-[[4-(N-Cyano-S-methyl-sulfonimidoyl)phenyl]methyl]-5-methyl-6-(2-methylpyrazol-3-yl)-3-oxo-4-[3-(trifluoromethyl)phenyl]pyrazine-2-carboxamide]
< 1 | Cc1c(-c2ccnn2-c2ccc(C#N)cc2)nc(C(=O)NCc2ccc(S(C)(=O)=NC#N)cc2)c(=O)n1-c1cccc(C(F)(F)F)c1 (single isomer, unassigned) [Example 17, N-[[4-(N-Cyano-S-methyl-sulfonimidoyl)phenyl]methyl]-6-[2-(4-cyanophenyl)pyrazol-3-yl]-5-methyl-3-oxo-4-[3-(trifluoromethyl)phenyl]pyrazine-2-carboxamide]
50 | CNC(=O)N=S(C)(=O)c1ccc(CNC(=O)c2cc(-c3ccnn3C)c(C)n(-c3cccc(C(F)(F)F)c3)c2=O)cc1 (centres unmarked) [Example 10, 6-Methyl-N-[[4-[S-methyl-N-(methylcarbamoyl)sulfonimidoyl]phenyl]methyl]-5-(2-methylpyrazol-3-yl)-2-oxo-1-[3-(trifluoromethyl)phenyl]pyridine-3-carboxamide]
40.3 | CN=S(C)(=O)c1ccc(CNC(=O)c2cc(-c3ccnn3C)c(C)n(-c3cccc(C(F)(F)F)c3)c2=O)cc1 (centres unmarked) [Example 11, N-[[4-(N,S-Dimethylsulfonimidoyl)phenyl]methyl]-6-methyl-5-(2-methylpyrazol-3-yl)-2-oxo-1-[3-(trifluoromethyl)phenyl]pyridine-3-carboxamide]
5 | Cc1c(-c2ccnn2C)cc(C(=O)NCc2ccc(S(C)(=O)=N[N+](=O)[O-])cc2)c(=O)n1-c1cccc(C(F)(F)F)c1 (centres unmarked) [Example 12, 6-Methyl-N-[[4-(S-methyl-N-nitro-sulfonimidoyl)phenyl]methyl]-5-(2-methylpyrazol-3-yl)-2-oxo-1-[3-(trifluoromethyl)phenyl]pyridine-3-carboxamide]
28.4 | CN=S(=O)(c1ccc(CNC(=O)c2cc(-c3ccnn3C)c(C)n(-c3cccc(C(F)(F)F)c3)c2=O)cc1)N1CCCCC1 (stereo not drawn) [Example 13, 6-Methyl-N-[[4-[N-methyl-S-(1-piperidyl)sulfonimidoyl]phenyl]methyl]-5-(2-methyl-pyrazol-3-yl)-2-oxo-1-[3-(trifluoromethyl)phenyl]pyridine-3-carboxamide]
261 | Cc1c(-c2ccnn2C)cc(C(=O)NCc2ccc(S(C)(=N)=N)cc2)c(=O)n1-c1cccc(C(F)(F)F)c1 [Example 14, 6-Methyl-5-(2-methylpyrazol-3-yl)-N-[[4-(methylsulfonodiimidoyl)phenyl]methyl]-2-oxo-1-[3-(trifluoromethyl)phenyl]pyridine-3-carboxamide]
43.5 | COCCN=S(C)(=N)c1ccc(CNC(=O)c2cc(-c3ccnn3C)c(C)n(-c3cccc(C(F)(F)F)c3)c2=O)cc1 (centres unmarked) [Example 15, N-[[4-[N-(2-Methoxyethyl)-S-methyl-sulfonodiimidoyl]phenyl]methyl]-6-methyl-5-(2-methylpyrazol-3-yl)-2-oxo-1-[3-(trifluoromethyl)phenyl]pyridine-3-carboxamide]
88.7 | CN=S(C)(=N)c1ccc(CNC(=O)c2cc(-c3ccnn3C)c(C)n(-c3cccc(C(F)(F)F)c3)c2=O)cc1 (centres unmarked) [Example 15.1]
6.7 | Cc1c(-c2ccnn2C)cc(C(=O)NCc2ccc(S(C)(=N)=NC#N)cc2)c(=O)n1-c1cccc(C(F)(F)F)c1 (centres unmarked) [Example 15.2]

Further lines, the compound ahead of its results:

Compound | IC50 [nM]
Cc1c(-c2ccnn2C)cc(C(=O)NCc2ccc(S(C)(=O)=NC#N)cc2)c(=O)n1-c1cccc(C(F)(F)F)c1 (racemic) [Example 3, N-[[4-(N-Cyano-S-methyl-sulfonimidoyl)phenyl]methyl]-6-methyl-5-(2-methylpyrazol-3-yl)-2-oxo-1-[3-(trifluoromethyl)phenyl]pyridine-3-carboxamide] | 2.6
Cc1c(-c2ccnn2C)cc(C(=O)NCc2ccc(S(C)(=N)=O)cc2)c(=O)n1-c1cccc(C(F)(F)F)c1 (racemic) [Example 4, 6-Methyl-5-(2-methylpyrazol-3-yl)-N-[[4-(methylsulfonimidoyl)phenyl]methyl]-2-oxo-1-[3-(trifluoromethyl)phenyl]pyridine-3-carboxamide] | 173
Cc1c(-c2ccnn2C)cc(C(=O)NCc2ccc(S(C)(=O)=NC#N)cc2)c(=O)n1-c1cccc(C(F)(F)F)c1 (single isomer, unassigned) [Example 3A] | 4.5
Cc1c(-c2ccnn2C)cc(C(=O)NCc2ccc(S(C)(=O)=NC#N)cc2)c(=O)n1-c1cccc(C(F)(F)F)c1 (single isomer, unassigned) [Example 3B] | 2.3
Cc1c(-c2ccnn2C)cc(C(=O)NCc2ccc(S(C)(=N)=O)cc2)c(=O)n1-c1cccc(C(F)(F)F)c1 (single isomer, unassigned) [Example 4A] | 93.9
Cc1c(-c2ccnn2C)cc(C(=O)NCc2ccc(S(C)(=N)=O)cc2)c(=O)n1-c1cccc(C(F)(F)F)c1 (single isomer, unassigned) [Example 4B] | 41.5
Cc1c(-c2ccnn2C)cc(C(=O)NCc2ccc(/S(C)=N/C#N)cc2)c(=O)n1-c1cccc(C(F)(F)F)c1 (centres unmarked) [Example 1, N-[[4-(N-Cyano-S-methyl-sulfinimidoyl)phenyl]methyl]-6-methyl-5-(2-methyl-pyrazol-3-yl)-2-oxo-1-[3-(trifluoromethyl)phenyl]pyridine-3-carboxamide] | 1.2
CN=S(=O)(c1ccc(CNC(=O)c2cc(-c3ccnn3C)c(C)n(-c3cccc(C(F)(F)F)c3)c2=O)cc1)N(C)C (centres unmarked) [Example 1.1] | 11.4
CN=S(=O)(NCc1ccccc1)c1ccc(CNC(=O)c2cc(-c3ccnn3C)c(C)n(-c3cccc(C(F)(F)F)c3)c2=O)cc1 (centres unmarked) [Example 1.2] | 14.4
CN=S(=O)(c1ccc(CNC(=O)c2cc(-c3ccnn3C)c(C)n(-c3cccc(C(F)(F)F)c3)c2=O)cc1)N(C)OC (centres unmarked) [Example 1.3] | 12.5
Cc1c(-c2ccnn2C)cc(C(=O)NCc2ccc(S(C)=N)cc2)c(=O)n1-c1cccc(C(F)(F)F)c1 (centres unmarked) [Example 2, 6-Methyl-5-(2-methylpyrazol-3-yl)-N-[[4-(methylsulfinimidoyl)phenyl]methyl]-2-oxo-1-[3-(trifluoromethyl)phenyl]pyridine-3-carboxamide] | 42
Cc1c(-c2ccnn2C)cc(C(=O)NCc2ccc(/S(C)=N/C(N)=O)cc2)c(=O)n1-c1cccc(C(F)(F)F)c1 (centres unmarked) [Example 5, N-[[4-(N-Carbamoyl-S-methyl-sulfinimidoyl)phenyl]methyl]-6-methyl-5-(2-methyl-pyrazol-3-yl)-2-oxo-1-[3-(trifluoromethyl)phenyl]pyridine-3-carboxamide] | 35.7
Cc1c(-c2ccnn2C)cc(C(=O)NCc2ccc(S(C)(=O)=NC(N)=O)cc2)c(=O)n1-c1cccc(C(F)(F)F)c1 (centres unmarked) [Example 6, N-[[4-(N-Carbamoyl-S-methyl-sulfonimidoyl)phenyl]methyl]-6-methyl-5-(2-methyl-pyrazol-3-yl)-2-oxo-1-[3-(trifluoromethyl)phenyl]pyridine-3-carboxamide] | 45.8
Cc1nc(N=S(C)(=O)c2ccc(CNC(=O)c3cc(-c4ccnn4C)c(C)n(-c4cccc(C(F)(F)F)c4)c3=O)cc2)oc1C (centres unmarked) [Example 7, N-[[4-[N-(4,5-Dimethyloxazol-2-yl)-S-methyl-sulfonimidoyl]phenyl]methyl]-6-methyl-5-(2-methylpyrazol-3-yl)-2-oxo-1-[3-(trifluoromethyl)phenyl]pyridine-3-carboxamide] | 34.3
Cc1c(-c2ccnn2C)cc(C(=O)NCc2ccc(S(C)(=O)=N/C(N)=N/O)cc2)c(=O)n1-c1cccc(C(F)(F)F)c1 (centres unmarked) [Example 8, N-[[4-[N—[N-Hydroxycarbamimidoyl]-S-methyl-sulfonimidoyl]phenyl]methyl]-6-methyl-5-(2-methylpyrazol-3-yl)-2-oxo-1-[3-(trifluoromethyl)phenyl]pyridine-3-carboxamide] | 64.4
COC(=O)N=S(C)(=O)c1ccc(CNC(=O)c2cc(-c3ccnn3C)c(C)n(-c3cccc(C(F)(F)F)c3)c2=O)cc1 (centres unmarked) [Example 9, Methyl N-[Methyl-[4-[[[6-methyl-5-(2-methylpyrazol-3-yl)-2-oxo-1-[3-(trifluoromethyl)phenyl]pyridine-3-carbonyl]amino]methyl]phenyl]-oxo-λ^6-sulfanylidene]-carbamate] | 17.6
CC(=O)N=S(C)(=O)c1ccc(CNC(=O)c2cc(-c3ccnn3C)c(C)n(-c3cccc(C(F)(F)F)c3)c2=O)cc1 (centres unmarked) [Example 9.1] | 37
Cc1c(-c2ccnn2C)cc(C(=O)NCc2ccc(S(C)(=O)=NC(=O)N3CCOCC3)cc2)c(=O)n1-c1cccc(C(F)(F)F)c1 (centres unmarked) [Example 9.2] | 72.7
Cc1c(-c2ccnn2C)cc(C(=O)NCc2ccc(S(C)(=O)=NS(C)(=O)=O)cc2)c(=O)n1-c1cccc(C(F)(F)F)c1 (centres unmarked) [Example 9.3] | 12.6
